Laboratory results published in US12454506B2, “Benzoate derivatives” (ZHEJIANG YUEJIA PHARMACEUTICALS CO., LTD, priority 2022, dated 2025).

Columns and labels:
[1] = test system: inflammatory factor MCP-1 mRNA in H9c2 cells; assay: TNF-α-induced H9c2 cell inflammation model, MCP-1 mRNA by RT-PCR; assay type: cell-based, rat; conditions: 2 h pre-incubation, 10 ng/mL TNF-α for 1 h, compounds A and C 5/1/0.2 mM, compound B 3/1/0.2 mM, FIG. 8
Method: The pH value was adjusted to 7.2 with 1 M HCl, and ultrapure water was used to reach the constant volume of 1 L. Finally, the medium was filtered into a sterile container by membrane filtration using a 0.22 m constant-volume filter. (After filtration, the pH value might rise by 0.1 to 0.3 units) • 1.3 Formulation of positive control drug: a dexamethasone solution: […] of dexamethasone was added to 5 mL of DMSO and shaken for dissolution. 1000×solution (10 mM) was obtained. The solution was aliquoted and stored in a refrigerator at −20° C. • 1.4 Formulation of test sample solution: […]
Compound A/compound B/compound C: the test sample was weighed at an appropriate mass and dissolved in DMSO to formulate a solution with a final concentration of 1 M, and the solution was aliquoted and then stored at −20° C. • 1.5 Penicillin/streptomycin biantibiotics solution: 8 million units/vial penicillin plus 40 mL of ultrapure water were mixed well, 1 g/vial streptomycin plus 50 mL of ultrapure water were mixed well, the two mixtures were mixed at a volume ratio of 1:1 to obtain 100×penicillin-streptomycin biantibiotics solution (containing 100,000 units/mL penicillin and 10 mg/mL streptomycin). After filtration through a 0.22 m sterile microfiltration membrane, the solution was aliquoted at 10 mL/tube, and stored in a refrigerator at −20° C. • 1.6 Formulation of buffer solution: • PBS: […] of NaCl, […] of KCl, […] of Na2HPO4 and […] of KH2PO4 were respectively weighed and placed in a 1 L volumetric flask; ultrapure water was added to 900 mL; the pH was adjusted to 7.2 with concentrated hydrochloric acid; and the volume was finalized to 1 L. The mixture was stored at room temperature. • 2. […]

[2] = Solubility in purified water; assay type: physicochemical; conditions: thermodynamic from solid, compound added stepwise to 2 mL until hypersaturated or 2.0 g added
Method: About […] of the compound (A or B or C) to be tested was weighed and placed into a 10 mL sample tube, 2 mL of purified water was added, and the mixture was mixed well. In case of complete dissolution, about […] of the compound to be tested was replenished continuously, and the mixture was mixed well until a hypersaturated state was reached or the compound to be tested was added to 2.0 g. If the compound to be tested was added to […] and is still completely dissolved, the solubility of the compound to be tested in water was recorded as >1.0 g/mL.

Row | solubility [2] [mg/mL] | Compound | inhibition of the elevation of the mRNA level of the inflammatory factor MCP-1 [1]
1 | > 1000 | CC[N+]([O-])(CC)CCOC(=O)c1ccccc1OC(C)=O [compound A] | dose-dependent inhibition
2 | > 1000 | CCN(CC)CCOC(=O)c1ccccc1OC(=O)CCl [compound B] | dose-dependent inhibition
3 | > 1000 | CCN(CC)CCOC1(C)OC(=O)c2ccccc2O1 (stereo not drawn) [compound C] | dose-dependent inhibition
